From US20120207704A1 (priority 2011, published 2012) come the findings set out here.

The subject of the assay is DU-145 cells. The format is cell-based, human.

Molecules are shown by their SMILES.

Regarding `C=C1[C@@H](C)[C@H]2[C@H](Cc3ccccc3)NC(=O)[C@]23[C@H](OC(C)=O)/C=C/[C@@](C)(O)C(=O)[C@@H](C)C/C=C/[C@H]3[C@@H]1O` [Cytochalasin-D], the “Effect on cell migration” value is “did not migrate”; the “Relative Wound Density at 24 Hours, Mean” value is reported as 3.3 ± 0.2; the “Relative Wound Density at 24 Hours, Percent Relative to Media” value is given as 4%.
